# Measurements from PubChem BioAssay (NCI).
#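 Growth conditions: 96-well plates. Treatment: test compound, 48 hours, 5 concentrations. Analysis: linear interpolation between bracketing concentrations; unreached endpoints set to highest concentration. The concentration for full growth arrest is given as TGI.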
# Test system: HOP-62 NSCLC
# Experiment: growth of human tumour cells (NCI), 48 h
row,SMILES,TGI [µM]
1,COc1ccccc1N1C(=O)C2c3[nH]c4ccccc4c3C3CCC(C(C)(C)C)CC3C2C1=O (stereo unspecified),> 100
2,O=C1C=CC(=O)c2c1ccc1c3ccccc3n(CCCCCCCCCCCCn3c4ccccc4c4ccc5c(c43)C(=O)C=CC5=O)c21,> 100
3,CC1(C)OC(=O)N(c2ccccc2)C12C=Cc1cc([N+](=O)[O-])cc([N+](=O)[O-])c1O2 (stereo unspecified),> 100
4,C=CCN1C[C@H](C)N([C@H](c2ccc(C(=O)NC(CC)CC)cc2)c2cccc(OC)c2)C[C@H]1C,> 100
5,CC(C)CCS(=O)(=O)OCCCCOS(=O)(=O)CCC(C)C,26.9
6,O=C1/C(=C\c2ccccc2)C(NC2CCCCC2)c2ccccc21 (stereo unspecified),7.21

# Test system: DMS 114 small cell lung
# Experiment: growth of human tumour cells (NCI), 48 h
row,SMILES,TGI [µM]
1,Cc1c(C(=O)CC(=O)C(=O)Nc2ccccc2C(F)(F)F)[n+](=O)c2ccccc2n1[O-],25.2
2,COc1ccccc1N1C(=O)C2c3[nH]c4ccccc4c3C3CCC(C(C)(C)C)CC3C2C1=O (stereo unspecified),> 100
3,CC(C)CCS(=O)(=O)OCCCCOS(=O)(=O)CCC(C)C,> 100

# Test system: COLO 205 colon
# Experiment: growth of human tumour cells (NCI), 48 h
row,SMILES,TGI [µM]
1,Cc1c(C(=O)CC(=O)C(=O)Nc2ccccc2C(F)(F)F)[n+](=O)c2ccccc2n1[O-],32.2
2,COc1ccccc1N1C(=O)C2c3[nH]c4ccccc4c3C3CCC(C(C)(C)C)CC3C2C1=O (stereo unspecified),> 100
3,O=C1C=CC(=O)c2c1ccc1c3ccccc3n(CCCCCCCCCCCCn3c4ccccc4c4ccc5c(c43)C(=O)C=CC5=O)c21,> 100
4,CC1(C)OC(=O)N(c2ccccc2)C12C=Cc1cc([N+](=O)[O-])cc([N+](=O)[O-])c1O2 (stereo unspecified),> 100
5,C=CCN1C[C@H](C)N([C@H](c2ccc(C(=O)NC(CC)CC)cc2)c2cccc(OC)c2)C[C@H]1C,32.5
6,CC(C)CCS(=O)(=O)OCCCCOS(=O)(=O)CCC(C)C,> 100
7,O=C1/C(=C\c2ccccc2)C(NC2CCCCC2)c2ccccc21 (stereo unspecified),3.22

# Test system: SF-539 CNS
# Experiment: growth of human tumour cells (NCI), 48 h
row,SMILES,TGI [µM]
1,Cc1c(C(=O)CC(=O)C(=O)Nc2ccccc2C(F)(F)F)[n+](=O)c2ccccc2n1[O-],46.2
2,COc1ccccc1N1C(=O)C2c3[nH]c4ccccc4c3C3CCC(C(C)(C)C)CC3C2C1=O (stereo unspecified),> 100
3,O=C1C=CC(=O)c2c1ccc1c3ccccc3n(CCCCCCCCCCCCn3c4ccccc4c4ccc5c(c43)C(=O)C=CC5=O)c21,> 100
4,C=CCN1C[C@H](C)N([C@H](c2ccc(C(=O)NC(CC)CC)cc2)c2cccc(OC)c2)C[C@H]1C,43.4
5,CC(C)CCS(=O)(=O)OCCCCOS(=O)(=O)CCC(C)C,> 100
6,O=C1/C(=C\c2ccccc2)C(NC2CCCCC2)c2ccccc21 (stereo unspecified),4.39

# Test system: U251 CNS
# Experiment: growth of human tumour cells (NCI), 48 h
row,SMILES,TGI [µM]
1,Cc1c(C(=O)CC(=O)C(=O)Nc2ccccc2C(F)(F)F)[n+](=O)c2ccccc2n1[O-],49
2,COc1ccccc1N1C(=O)C2c3[nH]c4ccccc4c3C3CCC(C(C)(C)C)CC3C2C1=O (stereo unspecified),> 100
3,O=C1C=CC(=O)c2c1ccc1c3ccccc3n(CCCCCCCCCCCCn3c4ccccc4c4ccc5c(c43)C(=O)C=CC5=O)c21,> 100
4,CC1(C)OC(=O)N(c2ccccc2)C12C=Cc1cc([N+](=O)[O-])cc([N+](=O)[O-])c1O2 (stereo unspecified),> 100
5,C=CCN1C[C@H](C)N([C@H](c2ccc(C(=O)NC(CC)CC)cc2)c2cccc(OC)c2)C[C@H]1C,> 100
6,CC(C)CCS(=O)(=O)OCCCCOS(=O)(=O)CCC(C)C,> 100
7,O=C1/C(=C\c2ccccc2)C(NC2CCCCC2)c2ccccc21 (stereo unspecified),3.48

# Test system: HOP-18 NSCLC
# Experiment: growth of human tumour cells (NCI), 48 h
row,SMILES,TGI [µM]
1,Cc1c(C(=O)CC(=O)C(=O)Nc2ccccc2C(F)(F)F)[n+](=O)c2ccccc2n1[O-],37
2,COc1ccccc1N1C(=O)C2c3[nH]c4ccccc4c3C3CCC(C(C)(C)C)CC3C2C1=O (stereo unspecified),> 100

# Test system: HS 578T breast
# Experiment: growth of human tumour cells (NCI), 48 h
row,SMILES,TGI [µM]
1,O=C1C=CC(=O)c2c1ccc1c3ccccc3n(CCCCCCCCCCCCn3c4ccccc4c4ccc5c(c43)C(=O)C=CC5=O)c21,> 100
2,CC1(C)OC(=O)N(c2ccccc2)C12C=Cc1cc([N+](=O)[O-])cc([N+](=O)[O-])c1O2 (stereo unspecified),> 100
3,C=CCN1C[C@H](C)N([C@H](c2ccc(C(=O)NC(CC)CC)cc2)c2cccc(OC)c2)C[C@H]1C,> 100
4,O=C1/C(=C\c2ccccc2)C(NC2CCCCC2)c2ccccc21 (stereo unspecified),16.3

# Test system: K-562 leukemia
# Experiment: growth of human tumour cells (NCI), 48 h
row,SMILES,TGI [µM]
1,Cc1c(C(=O)CC(=O)C(=O)Nc2ccccc2C(F)(F)F)[n+](=O)c2ccccc2n1[O-],93.2
2,COc1ccccc1N1C(=O)C2c3[nH]c4ccccc4c3C3CCC(C(C)(C)C)CC3C2C1=O (stereo unspecified),> 100
3,O=C1C=CC(=O)c2c1ccc1c3ccccc3n(CCCCCCCCCCCCn3c4ccccc4c4ccc5c(c43)C(=O)C=CC5=O)c21,> 100
4,CC1(C)OC(=O)N(c2ccccc2)C12C=Cc1cc([N+](=O)[O-])cc([N+](=O)[O-])c1O2 (stereo unspecified),> 100
5,C=CCN1C[C@H](C)N([C@H](c2ccc(C(=O)NC(CC)CC)cc2)c2cccc(OC)c2)C[C@H]1C,> 100
6,CC(C)CCS(=O)(=O)OCCCCOS(=O)(=O)CCC(C)C,> 100
7,O=C1/C(=C\c2ccccc2)C(NC2CCCCC2)c2ccccc21 (stereo unspecified),5.07

# Test system: LXFL 529 NSCLC
# Experiment: growth of human tumour cells (NCI), 48 h
row,SMILES,TGI [µM]
1,Cc1c(C(=O)CC(=O)C(=O)Nc2ccccc2C(F)(F)F)[n+](=O)c2ccccc2n1[O-],62.1
2,COc1ccccc1N1C(=O)C2c3[nH]c4ccccc4c3C3CCC(C(C)(C)C)CC3C2C1=O (stereo unspecified),> 100
3,CC(C)CCS(=O)(=O)OCCCCOS(=O)(=O)CCC(C)C,> 100

# Test system: CAKI-1 renal
# Experiment: growth of human tumour cells (NCI), 48 h
row,SMILES,TGI [µM]
1,Cc1c(C(=O)CC(=O)C(=O)Nc2ccccc2C(F)(F)F)[n+](=O)c2ccccc2n1[O-],> 100
2,O=C1C=CC(=O)c2c1ccc1c3ccccc3n(CCCCCCCCCCCCn3c4ccccc4c4ccc5c(c43)C(=O)C=CC5=O)c21,> 100
3,CC1(C)OC(=O)N(c2ccccc2)C12C=Cc1cc([N+](=O)[O-])cc([N+](=O)[O-])c1O2 (stereo unspecified),> 100
4,C=CCN1C[C@H](C)N([C@H](c2ccc(C(=O)NC(CC)CC)cc2)c2cccc(OC)c2)C[C@H]1C,65.1
5,O=C1/C(=C\c2ccccc2)C(NC2CCCCC2)c2ccccc21 (stereo unspecified),2.83

# Test system: OVCAR-8 ovarian
# Experiment: growth of human tumour cells (NCI), 48 h
row,SMILES,TGI [µM]
1,Cc1c(C(=O)CC(=O)C(=O)Nc2ccccc2C(F)(F)F)[n+](=O)c2ccccc2n1[O-],61.3
2,COc1ccccc1N1C(=O)C2c3[nH]c4ccccc4c3C3CCC(C(C)(C)C)CC3C2C1=O (stereo unspecified),> 100
3,O=C1C=CC(=O)c2c1ccc1c3ccccc3n(CCCCCCCCCCCCn3c4ccccc4c4ccc5c(c43)C(=O)C=CC5=O)c21,> 100
4,CC1(C)OC(=O)N(c2ccccc2)C12C=Cc1cc([N+](=O)[O-])cc([N+](=O)[O-])c1O2 (stereo unspecified),> 100
5,C=CCN1C[C@H](C)N([C@H](c2ccc(C(=O)NC(CC)CC)cc2)c2cccc(OC)c2)C[C@H]1C,> 100
6,CC(C)CCS(=O)(=O)OCCCCOS(=O)(=O)CCC(C)C,> 100
7,O=C1/C(=C\c2ccccc2)C(NC2CCCCC2)c2ccccc21 (stereo unspecified),6.09

# Test system: MALME-3M melanoma
# Experiment: growth of human tumour cells (NCI), 48 h
row,SMILES,TGI [µM]
1,Cc1c(C(=O)CC(=O)C(=O)Nc2ccccc2C(F)(F)F)[n+](=O)c2ccccc2n1[O-],37.1
2,COc1ccccc1N1C(=O)C2c3[nH]c4ccccc4c3C3CCC(C(C)(C)C)CC3C2C1=O (stereo unspecified),> 100
3,O=C1C=CC(=O)c2c1ccc1c3ccccc3n(CCCCCCCCCCCCn3c4ccccc4c4ccc5c(c43)C(=O)C=CC5=O)c21,> 100
4,C=CCN1C[C@H](C)N([C@H](c2ccc(C(=O)NC(CC)CC)cc2)c2cccc(OC)c2)C[C@H]1C,43.5
5,CC(C)CCS(=O)(=O)OCCCCOS(=O)(=O)CCC(C)C,> 100
6,O=C1/C(=C\c2ccccc2)C(NC2CCCCC2)c2ccccc21 (stereo unspecified),3.01

# Test system: RXF 393 renal
# Experiment: growth of human tumour cells (NCI), 48 h
row,SMILES,TGI [µM]
1,Cc1c(C(=O)CC(=O)C(=O)Nc2ccccc2C(F)(F)F)[n+](=O)c2ccccc2n1[O-],80.1
2,COc1ccccc1N1C(=O)C2c3[nH]c4ccccc4c3C3CCC(C(C)(C)C)CC3C2C1=O (stereo unspecified),> 100
3,O=C1C=CC(=O)c2c1ccc1c3ccccc3n(CCCCCCCCCCCCn3c4ccccc4c4ccc5c(c43)C(=O)C=CC5=O)c21,> 100
4,CC1(C)OC(=O)N(c2ccccc2)C12C=Cc1cc([N+](=O)[O-])cc([N+](=O)[O-])c1O2 (stereo unspecified),> 100
5,C=CCN1C[C@H](C)N([C@H](c2ccc(C(=O)NC(CC)CC)cc2)c2cccc(OC)c2)C[C@H]1C,> 100
6,CC(C)CCS(=O)(=O)OCCCCOS(=O)(=O)CCC(C)C,> 100
7,O=C1/C(=C\c2ccccc2)C(NC2CCCCC2)c2ccccc21 (stereo unspecified),2.93

# Test system: KM20L2 colon
# Experiment: growth of human tumour cells (NCI), 48 h
row,SMILES,TGI [µM]
1,Cc1c(C(=O)CC(=O)C(=O)Nc2ccccc2C(F)(F)F)[n+](=O)c2ccccc2n1[O-],92.3
2,COc1ccccc1N1C(=O)C2c3[nH]c4ccccc4c3C3CCC(C(C)(C)C)CC3C2C1=O (stereo unspecified),> 100
3,CC(C)CCS(=O)(=O)OCCCCOS(=O)(=O)CCC(C)C,> 100

# Test system: HCT-15 colon
# Experiment: growth of human tumour cells (NCI), 48 h
row,SMILES,TGI [µM]
1,Cc1c(C(=O)CC(=O)C(=O)Nc2ccccc2C(F)(F)F)[n+](=O)c2ccccc2n1[O-],44.4
2,COc1ccccc1N1C(=O)C2c3[nH]c4ccccc4c3C3CCC(C(C)(C)C)CC3C2C1=O (stereo unspecified),> 100
3,O=C1C=CC(=O)c2c1ccc1c3ccccc3n(CCCCCCCCCCCCn3c4ccccc4c4ccc5c(c43)C(=O)C=CC5=O)c21,> 100
4,CC1(C)OC(=O)N(c2ccccc2)C12C=Cc1cc([N+](=O)[O-])cc([N+](=O)[O-])c1O2 (stereo unspecified),> 100
5,C=CCN1C[C@H](C)N([C@H](c2ccc(C(=O)NC(CC)CC)cc2)c2cccc(OC)c2)C[C@H]1C,> 100
6,CC(C)CCS(=O)(=O)OCCCCOS(=O)(=O)CCC(C)C,> 100
7,O=C1/C(=C\c2ccccc2)C(NC2CCCCC2)c2ccccc21 (stereo unspecified),5.79

# Test system: XF 498 CNS
# Experiment: growth of human tumour cells (NCI), 48 h
row,SMILES,TGI [µM]
1,Cc1c(C(=O)CC(=O)C(=O)Nc2ccccc2C(F)(F)F)[n+](=O)c2ccccc2n1[O-],42
2,COc1ccccc1N1C(=O)C2c3[nH]c4ccccc4c3C3CCC(C(C)(C)C)CC3C2C1=O (stereo unspecified),> 100

# Test system: EKVX NSCLC
# Experiment: growth of human tumour cells (NCI), 48 h
row,SMILES,TGI [µM]
1,Cc1c(C(=O)CC(=O)C(=O)Nc2ccccc2C(F)(F)F)[n+](=O)c2ccccc2n1[O-],49.4
2,COc1ccccc1N1C(=O)C2c3[nH]c4ccccc4c3C3CCC(C(C)(C)C)CC3C2C1=O (stereo unspecified),> 100
3,O=C1C=CC(=O)c2c1ccc1c3ccccc3n(CCCCCCCCCCCCn3c4ccccc4c4ccc5c(c43)C(=O)C=CC5=O)c21,> 100
4,CC1(C)OC(=O)N(c2ccccc2)C12C=Cc1cc([N+](=O)[O-])cc([N+](=O)[O-])c1O2 (stereo unspecified),> 100
5,C=CCN1C[C@H](C)N([C@H](c2ccc(C(=O)NC(CC)CC)cc2)c2cccc(OC)c2)C[C@H]1C,> 100
6,CC(C)CCS(=O)(=O)OCCCCOS(=O)(=O)CCC(C)C,> 100
7,O=C1/C(=C\c2ccccc2)C(NC2CCCCC2)c2ccccc21 (stereo unspecified),11.2

# Test system: NCI-H226 lung
# Experiment: growth of human tumour cells (NCI), 48 h
row,SMILES,TGI [µM]
1,Cc1c(C(=O)CC(=O)C(=O)Nc2ccccc2C(F)(F)F)[n+](=O)c2ccccc2n1[O-],> 100
2,COc1ccccc1N1C(=O)C2c3[nH]c4ccccc4c3C3CCC(C(C)(C)C)CC3C2C1=O (stereo unspecified),> 100
3,O=C1C=CC(=O)c2c1ccc1c3ccccc3n(CCCCCCCCCCCCn3c4ccccc4c4ccc5c(c43)C(=O)C=CC5=O)c21,> 100
4,CC1(C)OC(=O)N(c2ccccc2)C12C=Cc1cc([N+](=O)[O-])cc([N+](=O)[O-])c1O2 (stereo unspecified),> 100
5,C=CCN1C[C@H](C)N([C@H](c2ccc(C(=O)NC(CC)CC)cc2)c2cccc(OC)c2)C[C@H]1C,> 100
6,CC(C)CCS(=O)(=O)OCCCCOS(=O)(=O)CCC(C)C,> 100
7,O=C1/C(=C\c2ccccc2)C(NC2CCCCC2)c2ccccc21 (stereo unspecified),14.1
